# Counter-ions that a name gives are not always drawn.
# Columns and labels:
# Solubility in water = type: physicochemical
# [1] = system: rats of male sex, of the Sprague-Dawley strain; experiment: Anti-inflammatory activity in the kaolin test; type: in vivo; settings: rat, 10% suspension of kaolin, diameter of the articulation
# Procedure: (§1) The tests used for the evaluation of the anti-inflammatory activity were respectively that of the kaolin and that of the egg white.
# a) Anti-inflammatory activity in the kaolin test. For each compound 16 rats of male sex, of the Sprague-Dawley strain and of 200-250 g of body weight, were used. The rats were divided into four groups each comprising four rats. All the animals were injected with a 10% suspension of kaolin. The first group was used as the control, whereas the other three groups were administered with doses respectively of 50,75 and 100 mg/Kg. The measurements of the diameters of the articulation were effected one hour after the kaolin injection and then every 24 hours.
# The inoculation of kaolin caused an increase of the tibio-tarsal articulation which has been partially limited by the treatment with the test compound.
# female rats = experiment: Test for possible teratogenic action; type: in vivo, rat; settings: 50 mg/Kg from the beginning up to the 19-20 day of gestation
# Procedure: The subject compound was also tested with respect to a possible teratogenic action, by administering to female rats a dose of 50 mg/Kg from the beginning up to the 19-20 day of gestation.
# [2] = Acute toxicity by oral route in the rat; type: in vivo; settings: rat, in vivo, rat, evaluated ten days after administration
# Procedure: (§2) Sprague-Dawley albine rats having an average weight of 120 + 5 g and of both sexes were used.
# (§3) For each compound 40 rats were treated. The test compound as a suspension in 5% arabic gum was administered through a gastric probe.
# (§4) The results were evaluated ten days after the administration.
# [3] = system: Sprague-Dawley albine rats; experiment: Acute toxicity by oral route in the rat; type: in vivo; settings: evaluated ten days after administration
# Procedure: as §2, §3, §4
# [4] = system: male rats, of the Sprague-Dawley strain; experiment: Anti-inflammatory activity in the egg white test; type: in vivo, rat; settings: two oral doses of 100 mg/Kg with a 30 minute interval, 0,1 ml of egg white in the rear paw, measured 3 and 4 hours later
# Procedure: as §1
# For each compound 16 male rats, of the Sprague-Dawley strain and weighing 300 g, were used. The animals were divided- in four groups each comprising four rats. The first group served as a control, whereas the other three groups were orally administered, with a 30 minute interval, with two doses of 50,75 and 100 mg/Kg of the test compound.
# The last administration was immediately followed by the inoculation of 0,1 ml of egg white in the rear paw of all the animals, including the controls. The measurements of the diameters of the articulations were effected 3 and 4 hours later.
# [5] = TREATMENT 900 (900 mg/Kg elsewhere in the source), oral by gastric probe
structure (smiles),measurement,setting,value
CC(C)Cc1ccc(C(C)C(=O)SC(C)C(=O)NCC(=O)O)cc1 (stereo not shown) [calcium salt],solubility in water,Solubility in water,insoluble
CC(C)Cc1ccc(C(C)C(=O)SC(C)C(=O)NCC(=O)O)cc1 (stereo not shown) [test compound],ANTI-INFLAMMATORY ACTIVITY %,[1]; 75 mg/kg,10%
same,ANTI-INFLAMMATORY ACTIVITY %,[1]; 100 mg/kg,26%
same,reabsorption number and the foeti in the treated rats with respect to the controls,female rats,no significant difference
same,weight of the foeti,female rats,did not revealed whatsoever anomaly
same,LD50 at 240 h,[2]; po,> 900 mg/kg
same,mortality at 240 h,[2]; [5],0%
same,dead/living,"[3]; TREATMENT 150 (dose unit not given), oral by gastric probe, suspension in 5% arabic gum",0/8
same,dead/living,"[3]; TREATMENT 300, oral by gastric probe",0/8
same,dead/living,"[3]; TREATMENT 450, oral by gastric probe",0/8
same,dead/living,"[3]; TREATMENT 600, oral by gastric probe",0/8
same,dead/living,[3]; [5],0/8
same,ANTI-INFLAMMATORY ACTIVITY %,[4],26%
CC(C)Cc1ccc(C(C)C(=O)SC(C)C(=O)NCC(=O)O)cc1 (stereo not shown) [magnesium salt],solubility in water,Solubility in water,insoluble
CC(C)Cc1ccc(C(C)C(=O)SC(C)C(=O)NCC(=O)O)cc1 (stereo not shown) [sodium salt],solubility in water,Solubility in water,highly soluble in water
CC(C)Cc1ccc(C(C)C(=O)SC(C)C(=O)NCC(=O)O)cc1 (stereo not shown) [potassium salt],solubility in water,Solubility in water,highly soluble in water

# Reference: patent publication EP0052909A1, “Derivative of alfa-mercaptopropionilglicine having therapeutical activity, process for its preparation and related pharmaceutical compositions” (Real S.a.s. di Alberto Reiner & C., priority 1980, dated 1982)
